Test results reported in patent publication US11583532B2, “Triazolopyrimidine derivatives for use as ghrelin o-acyl transferase (GOAT) inhibitors” (Boehringer Ingelheim International GmbH, priority 2018, dated 2023).

Target: human GOAT (ghrelin O-acyl transferase) (Homo sapiens (Human), UniProt Q96T53)
Assay: Determination of hGOAT activity in HEK293 cells after incubation with test compound (acyl-ghrelin ELISA)
Format: cell-based
Details: HEK293 cells stably transfected with preproghrelin and human GOAT cDNA; octanoate-BSA 100 μM; 5 hours incubation; acyl-ghrelin in medium by ELISA; 8 compound concentrations
Protocol: Determination of hGOAT Activity in HEK293 Cells after incubation with test compound
HEK293 cells stably transfected with two expression vectors, one coding for preproghrelin cDNA and a second for the expression of human GOATcDNA are used as a cellular model. After feeding the cells with octanoic acid for 5 hours, acyl-ghrelin is measured in cell culture medium by an ELISA procedure.
Cellline: Hek293 hGOAT/PPGhrl Clone #1B8Sodium octanoate, Sigma, Cat.-No. C5038
BSA: Sigma, Cat.-No. A8806
BD Poly-D-Lysin 384-well Plates, black-clear polystyrene BD Bioscience Cat.-No. […] ELISA human acylated Ghrelin Kit purchased from Bertin Pharman (detailed composition of buffers e.g. wash-puffer, ELISA buffer not known)
All further reagents used were of highest analytical grade available.
Cells are plated with a density of 5000 cells/well in 384-well poly-D-lysin plates and incubated for 1 day at 37° C., 5% CO2 in DMEM medium, 10% FCS, 1×NEAA, Puromycin (0.5 μg/ml) and G418 (1 mg/ml). Then the medium is changed to a identical medium without FCS and containing Octanoate-BSA (final concentration 100 μM each) and compound in DMSO (final DMSO concentration 0.3%). After incubation for 5 hours acylghrelin in the medium is measured by ELISA.
The medium sample is diluted 1:25 in Elisa buffer, a 25 μl aliquot is transferred to a 384-well ELISA plate previously washed 4 times with 100 μL wash buffer, and 25 μl tracer-solution is added. After incubation overnight (˜20 h) at 4° C. temperature the plate is washed 4 times with 100 μl wash-buffer per well. Finally 50 μl Ellman's reagent is added to each well and the plate is incubated in the dark for 20 minutes. The absorbance is measured at 405 nm in an Envision multilabel reader and the amount of acylated ghrelin is calculated according to a acylated ghrelin standard curve provided in the same plate.
The analysis of the data is performed by calculation of the percentage of acyl-ghrelin produced in the presence of test compound compared to the amount of acyl-ghrelin produced in the vehicle control samples. An inhibitor of the GOAT enzyme will give values between 100% CTL (no inhibition) and 0% CTL (complete inhibition).
IC50 values are calculated with Assay Explorer or other suited software based on curve fitting of results of 8 different compound concentrations.

Sequence of human GOAT (ghrelin O-acyl transferase) (Q96T53 whole entry): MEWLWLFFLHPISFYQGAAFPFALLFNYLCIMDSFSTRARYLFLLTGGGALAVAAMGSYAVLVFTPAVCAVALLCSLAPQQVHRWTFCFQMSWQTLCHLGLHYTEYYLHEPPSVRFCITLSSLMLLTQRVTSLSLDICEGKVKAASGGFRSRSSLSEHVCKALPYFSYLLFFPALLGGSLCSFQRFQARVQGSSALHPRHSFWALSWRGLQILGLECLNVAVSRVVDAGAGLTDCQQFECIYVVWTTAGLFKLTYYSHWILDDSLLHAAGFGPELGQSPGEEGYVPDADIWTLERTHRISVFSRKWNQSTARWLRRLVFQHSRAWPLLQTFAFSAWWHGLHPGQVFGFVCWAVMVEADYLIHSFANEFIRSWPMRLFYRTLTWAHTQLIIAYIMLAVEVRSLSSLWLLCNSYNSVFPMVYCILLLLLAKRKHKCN

IC50	SMILES
8.6 nM	Cc1nc2ncnn2c(N)c1Cc1ccc(OC(F)(F)F)c(C(=O)NC(C)C)c1 [Example 15.3]
9.3 nM	Cc1nc2ncnn2c(N)c1Cc1ccc(OC(F)(F)F)c(C(N)=O)c1 [Example 15.4]
0.95 nM	Nc1c(Cc2ccc(C(F)(F)F)cc2)c(C(F)F)nc2ncnn12 [Example 17.1, 5-(Difluoromethyl)-6-{[4-(trifluoromethyl)phenyl]methyl}-[1,2,4]triazolo[1,5-a]pyrimidin-7-amine]
5 nM	Cc1nc2ncnn2c(N)c1Cc1ccc(C(F)(F)F)cc1Br [Example 17.2]
4.2 nM	Cc1nc2ncnn2c(N)c1Cc1ccc(S(=O)(=O)C(F)(F)F)cc1 [Example 18.1, 5-Methyl-6-[(4-trifluoromethanesulfonylphenyl)methyl]-[1,2,4]triazolo[1,5-a]pyrimidin-7-amine]
4.9 nM	Cc1nc2ncnn2c(N)c1Cc1ccc([S+]([O-])C(F)(F)F)cc1 (stereo not drawn) [Example 19.1, 5-M ethyl-6-[(4-trifluoromethanesulfinylphenyl)methyl]-[1,2,4]triazolo[1,5-a]pyrimidin-7-amine]
9.2 nM	Cc1nc2ncnn2c(N)c1Cc1ccc(OC(F)(F)F)c(C#N)c1 [Example 20.1, 5-({7-Amino-5-methyl-[1,2,4]triazolo[1,5-a]pyrimidin-6-yl}methyl)-2-(trifluoromethoxy)benzonitrile]
8.1 nM	Cc1nc2ncnn2c(N)c1Cc1ccc(C(F)(F)F)cc1F [Example 21.1, 6-{[2-Fluoro-4-(trifluoromethyl)phenyl]methyl}-5-methyl-[1,2,4]triazolo[1,5-a]pyrimidin-7-amine]
7.2 nM	Cc1nc2ncnn2c(N)c1Cc1ccc(Br)c(C(=O)OCC(F)(F)F)c1 [Example 22.1, 2,2,2-Trifluoroethyl 5-({7-amino-5-methyl-[1,2,4]triazolo[1,5-a]pyrimidin-6-yl}methyl)-2-bromobenzoate]
4.6 nM	Cc1nc2ncnn2c(N)c1Cc1ccc(C(F)(F)F)c(C#N)n1 [Example 24.1, 6-({7-Amino-5-methyl-[1,2,4]triazolo[1,5-a]pyrimidin-6-yl}methyl)-3-(trifluoromethyl)pyridine-2-carbonitrile]
1 nM	COc1cc(Cc2c(Cl)nc3ncnn3c2N)ccc1C(F)(F)F [Example 25.2]
5.7 nM	Nc1c(Cc2ccc(C(F)(F)F)cc2)c(Cl)nc2ncnn12 [Example 25.3]

The remaining lines, values behind:

SMILES	IC50
Cc1nc2ncnn2c(N)c1Cc1ccc(-c2c[nH]nc2C(F)(F)F)c(N)n1 [Example 16.1, 6-({7-Amino-5-methyl-[1,2,4]triazolo[1,5-a]pyrimidin-6-yl}methyl)-3-[3-(trifluoromethyl)-1H-pyrazol-4-yl]pyridin-2-amine]	3.1 nM
Cc1nc2ncnn2c(N)c1Cc1ccc(Br)c(N2CCC(F)(F)C2)n1 [Example 23.1, 6-{[5-Bromo-6-(3,3-difluoropyrrolidin-1-yl)pyridin-2-yl]methyl}-5-methyl-[1,2,4]triazolo[1,5-a]pyrimidin-7-amine]	0.25 nM
Cc1nc2ncnn2c(N)c1Cc1ccc(Br)c(N2CCC(F)(F)CC2)n1 [Example 23.2]	0.29 nM
Cc1nc2ncnn2c(N)c1Cc1ccc(Br)c(N2CC(F)(F)C2)n1 [Example 23.3]	0.36 nM
Cc1nc2ncnn2c(N)c1Cc1ccc(Br)c(N2CCC(C(F)(F)F)C2)n1 (stereo not drawn) [Example 23.4]	0.7 nM
Cc1nc2ncnn2c(N)c1Cc1ccc(Br)c(N2CCC(O)(C(F)(F)F)C2)n1 (stereo not drawn) [Example 23.5]	0.83 nM
Cc1nc2ncnn2c(N)c1Cc1ccc(Br)c(N2Cc3ccc(F)cc3C2)n1 [Example 23.6]	0.86 nM
Cc1nc2ncnn2c(N)c1Cc1ccc(Br)c(N2CC(C(F)(F)F)C2)n1 [Example 23.7]	7.7 nM
COc1cc(C(F)(F)F)ccc1Cc1c(Cl)nc2ncnn2c1N [Example 25.1, 5-Chloro-6-{[2-methoxy-4-(trifluoromethyl)phenyl]methyl}-[1,2,4]triazolo[1,5-a]pyrimidin-7-amine]	0.83 nM
